In patent US20090176807A1, “GLUCOCORTICOID MIMETICS, METHODS OF MAKING THEM, PHARMACEUTICAL COMPOSITIONS, AND USES THEREOF” (priority 2005, published 2009):

Each compound was assayed against T1, human glucocorticoid receptor (GR) complex (Homo sapiens, UniProt P04150) (assay: Glucocorticoid receptor competitive binding assay (fluorescence polarization)). Conditions: competition with TAMRA-labeled dexamethasone, result in words only.
T1 construct: made in house; host or cells: insect expression system (baculovirus lysate)
T1 sequence (P04150 1-777): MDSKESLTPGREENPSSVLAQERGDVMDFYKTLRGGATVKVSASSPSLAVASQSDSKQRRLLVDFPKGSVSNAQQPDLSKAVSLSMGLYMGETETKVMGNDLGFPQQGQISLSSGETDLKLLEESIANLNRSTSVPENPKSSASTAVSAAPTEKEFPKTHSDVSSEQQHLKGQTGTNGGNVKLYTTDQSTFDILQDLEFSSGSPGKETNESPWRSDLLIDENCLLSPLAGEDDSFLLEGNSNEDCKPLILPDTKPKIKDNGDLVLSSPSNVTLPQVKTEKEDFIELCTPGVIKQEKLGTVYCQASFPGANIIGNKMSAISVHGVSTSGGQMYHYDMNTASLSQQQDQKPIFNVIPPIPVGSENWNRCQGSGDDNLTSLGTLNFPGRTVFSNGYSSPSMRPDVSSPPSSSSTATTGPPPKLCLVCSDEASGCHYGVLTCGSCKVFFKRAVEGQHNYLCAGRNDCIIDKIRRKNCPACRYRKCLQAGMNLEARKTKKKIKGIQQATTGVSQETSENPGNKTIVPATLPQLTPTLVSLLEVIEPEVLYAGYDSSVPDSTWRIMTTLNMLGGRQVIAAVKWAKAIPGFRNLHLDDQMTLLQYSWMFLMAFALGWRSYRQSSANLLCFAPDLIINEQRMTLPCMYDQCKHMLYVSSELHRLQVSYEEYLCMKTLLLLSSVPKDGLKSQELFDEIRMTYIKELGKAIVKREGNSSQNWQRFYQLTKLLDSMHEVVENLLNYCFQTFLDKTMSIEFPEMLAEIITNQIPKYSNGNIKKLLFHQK
Method: Compounds of the invention were evaluated for binding to the steroid receptor by a fluorescence polarization competitive binding assay.
The wavelengths for maximum excitation and emission of the fluorescent probe should first be measured. An example of such a probe is rhodamine (TAMRA)-labeled dexamethasone.
The affinity of the probe for the steroid receptor was then determined in a titration experiment. The fluorescence polarization value of the probe in assay buffer was measured on an SLM-8100 fluorometer using the excitation and emission maximum values described above. Aliquots of expression vector lysate were added and fluorescence polarization was measured after each addition until no further change in polarization value was observed. Non-linear least squares regression analysis was used to calculate the dissociation constant of the probe from the polarization values obtained for lysate binding to the probe.
This assay uses fluorescence polarization (FP) to quantitate the ability of test compounds to compete with tetramethyl rhodamine (TAMRA)-labeled dexamethasone for binding to a human glucocorticoid receptor (GR) complex prepared from an insect expression system. The assay buffer was: 10 mM TES, 50 mM KCl, 20 mM Na2MoO4.2H2O, 1.5 mM EDTA, 0.04% w/v CHAPS, 10% v/v glycerol, 1 mM dithiothreitol, pH 7.4. Test compounds were dissolved to 1 mM in neat DMSO and then further diluted to 10× assay concentration in assay buffer supplemented with 10% v/v DMSO. Test compounds were serially diluted at 10× assay concentrations in 10% DMSO-containing buffer in 96-well polypropylene plates. Binding reaction mixtures were prepared in 96-well black Dynex microtiter plates by sequential addition of the following assay components to each well: 15 μL of 10× test compound solution, 85 μL of GR-containing baculovirus lysate diluted 1:170 in assay buffer, and 50 μL of 15 nM TAMRA-labeled dexamethasone. Positive controls were reaction mixtures containing no test compound; negative controls (blanks) were reaction mixtures containing 0.7 μM to 2 μM dexamethasone. […] IC50 values were determined by iterative non-linear curve fitting of the FP signal data to a 4-parameter logistic equation.

activity in the GR binding assay | SMILES
potent activity | COc1c(C)cccc1C(C)(C)CC(O)(Cn1ccc(=O)c2sccc21)C(F)(F)F (centres unmarked) [4-[2-Hydroxy-4-(2-methoxy-3-methylphenyl)-4-methyl-2-trifluoromethylpentyl]-4H-thieno[3,2-b]pyridin-7-one]
potent activity | CC(C)(CC(O)(Cn1ccc(=O)c2sccc21)C(F)(F)F)c1cc(-c2cncnc2)ccc1O (centres unmarked) [4-[2-Hydroxy-4-(2-hydroxy-5-pyrimidin-5-ylphenyl)-4-methyl-2-trifluoromethylpentyl]-4H-thieno[3,2-b]pyridin-7-one]
potent activity | CC(C)(CC(O)(Cn1cc(Br)c(=O)c2sccc21)C(F)(F)F)c1cccc2c1OCC2 (centres unmarked) [6-Bromo-4-[4-(2,3-dihydrobenzofuran-7-yl)-2-hydroxy-4-methyl-2-trifluoromethylpentyl]-4H-thieno[3,2-b]pyridin-7-one]
potent activity | CC(C)(CC(O)(Cn1cc(Cl)c(=O)c2cnccc21)C(F)(F)F)c1cc(-c2cccnc2)cc2c1OCC2 (centres unmarked) [3-Chloro-1-[2-hydroxy-4-methyl-4-(5-pyridin-3-yl-2,3-dihydrobenzofuran-7-yl)-2-trifluoromethylpentyl]-1H-[1,6]naphthyridin-4-one]
potent activity | COc1ccc(F)cc1C(C)(C)CC(O)(Cn1ccc(=O)c2sccc21)C(F)(F)F (centres unmarked) [4-[4-(5-Fluoro-2-methoxyphenyl)-2-hydroxy-4-methyl-2-trifluoromethylpentyl]-4H-thieno[3,2-b]pyridin-7-one]
potent activity | CC(C)(CC(O)(Cn1cc(Cl)c(=O)c2sccc21)C(F)(F)F)c1cccc2c1OCO2 (centres unmarked) [4-(4-Benzo[1,3]dioxol-4-yl-2-hydroxy-4-methyl-2-trifluoromethylpentyl)-6-chloro-4H-thieno[3,2-b]pyridin-7-one]
potent activity | Cc1cccc(C(C)(C)CC(O)(Cn2ccc(=O)c3sccc32)C(F)(F)F)c1OC(F)F (centres unmarked) [4-[4-(2-Difluoromethoxy-3-methylphenyl)-2-hydroxy-4-methyl-2-trifluoromethylpentyl]-4H-thieno[3,2-b]pyridin-7-one]
potent activity | CC(C)(CC(O)(Cn1ccc(=O)c2sccc21)C(F)(F)F)c1cccc2c1OCC2 (centres unmarked) [4-[4-(2,3-Dihydrobenzofuran-7-yl)-2-hydroxy-4-methyl-2-trifluoromethylpentyl]-4H-thieno[3,2-b]pyridin-7-one]
potent activity | CC(C)(CC(O)(Cn1ccc(=O)c2cnccc21)C(F)(F)F)c1cc(F)ccc1O (centres unmarked) [1-[4-(5-Fluoro-2-hydroxyphenyl)-2-hydroxy-4-methyl-2-trifluoromethylpentyl]-1H-[1,6]naphthyridin-4-one]
potent activity | COc1c(Br)cccc1C(C)(C)CC(O)(Cn1ccc(=O)c2sccc21)C(F)(F)F (centres unmarked) [4-[4-(3-Bromo-2-methoxyphenyl)-2-hydroxy-4-methyl-2-trifluoromethylpentyl]-4H-thieno[3,2-b]pyridin-7-one]
potent activity | CC(C)(CC(O)(Cn1cc(Cl)c(=O)c2cnccc21)C(F)(F)F)c1cc(-c2cncnc2)cc2c1OCC2 (centres unmarked) [3-Chloro-1-[2-hydroxy-4-methyl-4-(5-pyrimidin-5-yl-2,3-dihydrobenzofuran-7-yl)-2-trifluoromethylpentyl]-1H-[1,6]naphthyridin-4-one]
potent activity | CC(C)(CC(O)(Cn1ccc(=O)c2sccc21)C(F)(F)F)c1cccc(-c2ccccc2)c1 (centres unmarked) [4-(4-Biphenyl-3-yl-2-hydroxy-4-methyl-2-trifluoromethylpentyl)-4H-thieno[3,2-b]pyridin-7-one]
potent activity | CC(C)(CC(O)(Cn1cc(Cl)c(=O)c2cnccc21)C(F)(F)F)c1cccc2c1OCO2 (centres unmarked) [1-(4-Benzo[1,3]dioxol-4-yl-2-hydroxy-4-methyl-2-trifluoromethylpentyl)-3-chloro-1H-[1,6]naphthyridin-4-one]
potent activity | COc1ccc(-c2cccnc2)cc1C(C)(C)CC(O)(Cn1cc(Cl)c(=O)c2sccc21)C(F)(F)F (centres unmarked) [6-Chloro-4-[2-hydroxy-4-(2-methoxy-5-pyridin-3-ylphenyl)-4-methyl-2-trifluoromethylpentyl]-4H-thieno[3,2-b]pyridin-7-one]
potent activity | CC(C)(CC(O)(Cn1ccc(=O)c2sccc21)C(F)(F)F)c1cc(-c2cncnc2)cc2c1OCC2 (centres unmarked) [4-[2-Hydroxy-4-methyl-4-(5-pyrimidin-5-yl-2,3-dihydrobenzofuran-7-yl)-2-trifluoromethylpentyl]-4H-thieno[3,2-b]pyridin-7-one]
potent activity | COc1ccc(-c2cccnc2)cc1C(C)(C)CC(O)(Cn1ccc(=O)c2sccc21)C(F)(F)F (centres unmarked) [4-[2-Hydroxy-4-(2-methoxy-5-pyridin-3-ylphenyl)-4-methyl-2-trifluoromethylpentyl]-4H-thieno[3,2-b]pyridin-7-one]
potent activity | Cc1cccc(C(C)(C)CC(O)(Cn2ccc(=O)c3sccc32)C(F)(F)F)c1O (centres unmarked) [4-[2-Hydroxy-4-(2-hydroxy-3-methylphenyl)-4-methyl-2-trifluoromethylpentyl]-4H-thieno[3,2-b]pyridin-7-one]
potent activity | CC(C)(CC(O)(Cn1cc(Cl)c(=O)c2sccc21)C(F)(F)F)c1cc(-c2cncnc2)cc2c1OCC2 (centres unmarked) [6-Chloro-4-[2-hydroxy-4-methyl-4-(5-pyrimidin-5-yl-2,3-dihydrobenzofuran-7-yl)-2-trifluoromethylpentyl]-4H-thieno[3,2-b]pyridin-7-one]
potent activity | COc1ccc(F)cc1C(C)(C)CC(O)(Cn1ccc(=O)c2cnccc21)C(F)(F)F (centres unmarked) [1-[4-(5-Fluoro-2-methoxyphenyl)-2-hydroxy-4-methyl-2-trifluoromethylpentyl]-1H-[1,6]naphthyridin-4-one]
potent activity | COc1ccc(-c2cncnc2)cc1C(C)(C)CC(O)(Cn1cc(Cl)c(=O)c2sccc21)C(F)(F)F (centres unmarked) [6-Chloro-4-[2-hydroxy-4-(2-methoxy-5-pyrimidin-5-ylphenyl)-4-methyl-2-trifluoromethylpentyl]-4H-thieno[3,2-b]pyridin-7-one]
potent activity | Cc1ccc(F)cc1C(C)(C)CC(O)(Cn1ccc(=O)c2cnccc21)C(F)(F)F (centres unmarked) [1-[4-(5-Fluoro-2-methylphenyl)-2-hydroxy-4-methyl-2-trifluoromethylpentyl]-1H-[1,6]naphthyridin-4-one]
potent activity | CC(C)(CC(O)(Cn1ccc(=O)c2cnccc21)C(F)(F)F)c1cc(-c2cncnc2)cc2c1OCC2 (centres unmarked) [1-[2-Hydroxy-4-methyl-4-(5-pyrimidin-5-yl-2,3-dihydrobenzofuran-7-yl)-2-trifluoromethylpentyl]-1H-[1,6]naphthyridin-4-one]
potent activity | CC(C)(CC(O)(Cn1cc(Cl)c(=O)c2sccc21)C(F)(F)F)c1cccc(-c2ccccc2)c1 (centres unmarked) [4-(4-Biphenyl-3-yl-2-hydroxy-4-methyl-2-trifluoromethylpentyl)-6-chloro-4H-thieno[3,2-b]pyridin-7-one]
